The assay deals with human SCD1 (Homo sapiens (Human), UniProt O00767). The assay can be described thus: Yeast growth assay, strain expressing human SCD1 as the sole desaturase (reduced growth as surrogate for SCD inhibition). It is filed as cell-based. As to conditions: yeast with OLE1 deleted expressing human SCD1 from a plasmid; growth read as OD600 after 40 h at 30° C.; top drug concentration 33.3 μM. As for the experimental part: Strains expressing SCD1 or SCD5 as the sole desaturase, the human SCD1 and SCD5 genes were used to evaluate inhibition of SCD1/SCD5 using reduced growth as a surrogate for SCD inhibition. These yeast strains express human SCD1 or SCD5 from a plasmid harbored in a strain in which the yeast OLE1 gene is deleted.
Chain of human SCD1 (O00767 whole entry): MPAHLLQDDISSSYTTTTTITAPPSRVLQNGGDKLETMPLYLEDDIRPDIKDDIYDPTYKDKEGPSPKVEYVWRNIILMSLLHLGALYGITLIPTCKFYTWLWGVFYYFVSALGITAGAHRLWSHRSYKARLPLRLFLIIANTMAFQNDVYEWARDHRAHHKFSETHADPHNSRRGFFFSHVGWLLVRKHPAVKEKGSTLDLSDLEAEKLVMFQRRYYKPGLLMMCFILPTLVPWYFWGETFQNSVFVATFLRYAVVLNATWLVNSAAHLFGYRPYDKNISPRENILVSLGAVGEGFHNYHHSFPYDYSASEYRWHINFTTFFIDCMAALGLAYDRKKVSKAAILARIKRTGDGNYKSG
All compound profiling experiments were performed using the same basic protocol. Yeast were cultured using standard techniques in complete synthetic media lacking uracil and containing yeast nitrogen base supplemented with 2% (w/v) glucose (SD-Ura) Starter cultures were inoculated in 3 mL SD-Ura media containing 0.01% tween and 0.2 mM palmitoleic and oleic acid. Cultures were incubated overnight in a 30° C. shaker incubator (225 rpm). Saturated morning cultures were centrifuged, washed in SD-Ura media lacking TWEEN-20 and fatty acids, and then diluted 1:20 in fresh SD-Ura media also lacking TWEEN-20 and fatty acids.
Compound administration was performed in two separate steps. First, 15 μL of SD-Ura was dispensed into clear 384-well assay plates using a MULTIDROP™ Combi reagent dispenser. […] The cultures described above were centrifuged and washed with media lacking TWEEN-20 or oleic and palmitoleic acids.
After yeast delivery, assay plates were incubated under humidified conditions at 30° C. for 40 h. Yeast growth was monitored by reading the OD600 of each well using a microplate reader (Perkin Elmer EnVision™).
The IC50 is the concentration that gives 50% inhibition. In turn, `O=C(Nc1cnn(Cc2cnccc2C(F)(F)F)c1)c1cc(-c2ccc3c(c2)OCO3)on1` [Compound 199, 5-(2H-1,3-benzodioxol-5-yl)-N-(1-{[4-(trifluoromethyl)pyridin-3-yl]methyl}-1H-pyrazol-4-yl)-1,2-oxazole-3-carboxamide] returned an IC50 of more than 45 µM. Consider `Cc1cnccc1-c1cc(C(=O)Nc2cnn(Cc3ccccc3)c2)no1` [Compound 201, N-(1-benzyl-1H-pyrazol-4-yl)-5-(3-methylpyridin-4-yl)isoxazole-3-carboxamide], for which the IC50 was more than 45 µM. Molecule `O=C(c1cc(-c2ccccc2)on1)N1CC(Cc2ccccc2)C1` [Compound 211, (3-benzylazetidin-1-yl)-(5-phenylisoxazol-3-yl)methanone] displayed an IC50 of 0.12 µM. With `O=C(c1cc(-c2ccc3c(c2)OCO3)on1)N1CC(c2ccccc2)C1` [Compound 217, [5-(1,3-benzodioxol-5-yl)isoxazol-3-yl]-(3-phenylazetidin-1-yl)methanone] the figure was 1.57 µM; with `O=C(c1cc(-c2ccccc2)on1)N1CC2(C1)CC(O)(c1ccccc1)C2` [Compound 226, (6-hydroxy-6-phenyl-2-azaspiro[3.3]heptan-2-yl)-(5-phenylisoxazol-3-yl)methanone], 12 µM. With `O=C(c1cc(-c2ccc3c(c2)OCO3)on1)N1CC2(CC(c3ccccc3)C2)C1` [Compound 228] the figure was 37.1 µM. With `CNC(=O)c1ccc(-c2cc(C(=O)N3CC(c4ccccc4)C3)no2)cc1` [Compound 231, N-methyl-4-(3-(3-phenylazetidine-1-carbonyl)isoxazol-5-yl)benzamide] the figure was more than 45 µM; with `O=C(c1cc(-c2ccc(Cl)cn2)on1)N1CC(c2ccccc2)C1` [Compound 241, (5-(5-chloropyridin-2-yl)isoxazol-3-yl)(3-phenylazetidin-1-yl)methanone], 3.38 µM; with `O=C(c1cc(-c2ccco2)on1)N1CC2(CCC2)C1` [Compound 246], more than 45 µM. `O=C(c1cc(N2CCOCC2)on1)N1CC(c2ccccc2)C1` [Compound 248] showed an IC50 of 33 µM.

On to `COC1CCN(c2cc(C(=O)N3CC(c4ccccc4)C3)no2)CC1` [Compound 249], for which the IC50 was more than 45 µM. The result for `CC(C)c1cc(C(=O)N2CC(Cc3ccccc3)C2)no1` [Compound 251] reads more than 45 µM; that for `O=C(c1cc(-c2ccc(Cl)cn2)on1)N1CC(Cc2ccccc2)C1` [Compound 254], more than 45 µM. With `COc1ccc(-c2cc(C(=O)N3CC(Cc4ccccc4)C3)no2)nn1` [Compound 256] the figure was more than 45 µM. With `O=C(c1cc(-c2ccc3c(c2)OCO3)on1)N1CCOc2ccccc21` [Compound 262] the figure was more than 45 µM.

Turning to `O=C(c1cc(-c2ccc3c(c2)OCO3)on1)N1CCCc2cccc(F)c21` [Compound 264], the IC50 was more than 45 µM. The result for `CC(C)(C)OC(=O)N1CCN(C(=O)c2cc(-c3ccc4c(c3)OCO4)on2)CC1` [Compound 267] reads more than 45 µM. The molecule `O=C(c1cc(-c2ccccc2)on1)N1CCn2ccnc2C1` [Compound 268] displayed an IC50 of 36 µM.

For `CC1CN(c2ccccc2)CCN1C(=O)c1cc(-c2ccc3c(c2)OCO3)on1` (stereo not shown) [Compound 270, (5-(benzo[d][1,3]dioxol-5-yl)isoxazol-3-yl)(2-methyl-4-phenylpiperazin-1-yl)methanone], the IC50 is more than 45 µM. The result for `COc1ccc(-c2cc(C(=O)N3CCN(c4ccccc4)CC3)no2)cc1OC` [Compound 274] reads more than 45 µM; that for `O=C(c1cc(-c2ccc3c(c2)OCO3)on1)N1CCN(c2ccccc2F)CC1` [Compound 277], more than 45 µM; that for `O=C(c1cc(-c2ccccc2)on1)N1CCC(c2ccccc2C(F)(F)F)CC1` [Compound 289, (5-phenylisoxazol-3-yl)-[4-[2-(trifluoromethyl)phenyl]-1-piperidyl]methanone], more than 45 µM. The result for `O=C(c1cc(-c2ccc3c(c2)OCO3)on1)N1CCC(O)(c2ccccc2)CC1` [Compound 300] reads more than 45 µM.

Turning to `O=C(c1cc(-c2ccc3c(c2)OCO3)on1)N1CCC(c2ccccc2C(F)(F)F)CC1` [Compound 302, [5-(1,3-benzodioxol-5-yl)isoxazol-3-yl]-[4-[2-(trifluoromethyl)phenyl]-1-piperidyl]methanone], the IC50 is more than 45 µM. With `CNC(=O)c1ccc(-c2cc(C(=O)N3CCC(c4ccccc4)CC3)no2)cc1` [Compound 304, N-methyl-4-[3-(4-phenylpiperidine-1-carbonyl)isoxazol-5-yl]benzamide] the figure was 0.38 µM; with `O=C(c1cc(-c2ccccc2)on1)N1CC=C(c2cc(F)ccc2Cl)CC1` [Compound 305], 4.8 µM. The result for `O=C(c1cc(-c2ccc3c(c2)OCO3)on1)N1CC=C(c2cc(F)ccc2Cl)CC1` [Compound 306, [5-(1,3-benzodioxol-5-yl)isoxazol-3-yl]-[4-(2-chloro-5-fluoro-phenyl)-3,6-dihydro-2H-pyridin-1-yl]methanone] reads 3.27 µM; that for `O=C(c1cc(-c2ccccc2)on1)N1CCC(c2cccc(F)c2)CC1` [Compound 307, [4-(3-fluorophenyl)-1-piperidyl]-(5-phenylisoxazol-3-yl)methanone], more than 45 µM. With `O=C(c1cc(-c2ccc3c(c2)OCO3)on1)N1CCC(c2cccc(F)c2)CC1` [Compound 309, [5-(1,3-benzodioxol-5-yl)isoxazol-3-yl]-[4-(3-fluorophenyl)-1-piperidyl]methanone] the figure was more than 45 µM. `CNC(=O)c1ccc(-c2cc(C(=O)N3CCC(F)(c4ccccc4)CC3)no2)cc1` [Compound 321] registered an IC50 of more than 45 µM. With `COC1(c2ccccc2)CCN(C(=O)c2cc(-c3ccccc3)on2)CC1` [Compound 323] the figure was more than 45 µM. Turning to `N#Cc1ccc(-c2cc(C(=O)N3CCC(c4ccccc4)CC3)no2)c(F)c1` [Compound 325, 3-fluoro-4-(3-(4-phenylpiperidine-1-carbonyl)isoxazol-5-yl)benzonitrile], the IC50 worked out at 0.16 µM.

The molecule `O=C(c1cc(-c2ccc3c(c2)OCO3)on1)N1CCC[C@H]1c1ccccc1` [Compound 327] registered an IC50 of 33.5 µM. The result for `O=C(c1cc(-c2ccccc2Cl)on1)N1CCC(c2ccccc2)C1` (stereo not shown) [Compound 333] reads more than 45 µM. With `O=C(c1cc(-c2ccccc2)on1)N1CCC(c2cccc(F)c2)C1` (stereo not shown) [Compound 339] the figure was more than 45 µM. With `O=C(c1cc(-c2ccccc2)on1)N1CCC2(CCN(c3ccccc3)C2)C1` (stereo not shown) [Compound 341] the figure was more than 45 µM; with `O=C(NC1CCN(c2ccccc2)C1)c1cc(-c2ccco2)on1` (stereo not shown) [Compound 343], more than 45 µM.

Molecule `CC(C)c1cc(C(=O)N2CCC(c3cccc(F)c3)C2)no1` (stereo not shown) [Compound 350] gave an IC50 of more than 45 µM.

With `O=C(c1cc(-c2ccccn2)on1)N1CCC(c2ccccc2)C1` (stereo not shown) [Compound 351], the IC50 was more than 45 µM. `O=C(c1cc(-c2ccc3c(c2)OCO3)on1)N1CCCC1c1ccccc1` (stereo not shown) [Compound 354]: the IC50 was more than 45 µM. The result for `Cc1cccc(C2CCCN2C(=O)c2cc(-c3ccc4c(c3)OCO4)on2)c1` (stereo not shown) [Compound 355] reads more than 45 µM. The result for `COc1ccc(C2CCCN2C(=O)c2cc(-c3ccc4c(c3)OCO4)on2)cc1` (stereo not shown) [Compound 356] reads more than 45 µM. With `O=C(c1cc(-c2ccc3c(c2)OCO3)on1)N1CCC[C@@H]1c1ccccc1` [Compound 358] the figure was more than 45 µM.

The values are drawn from patent US10919885B2, “Compounds and uses thereof” (Yumanity Therapeutics, Inc., priority 2018, dated 2021).
